Test results as given in PMC12140300, “Development of Carbon‐11 Labeled Pyrimidine Derivatives as Novel Positron Emission Tomography (PET) Agents Enabling Brain Sigma‐1 Receptor Imaging” (Advanced Science, 2025).
Read-outs that look alike come from different tables or passages of the source.

Assays:
[1] = tested on: σ1R; design: method as in PMID 25420090; settings: rodent acute and neuropathic pain models; cited from earlier work
[2] = tested on: σ2R; design: method as in PMID 25420090; settings: selectivity ratio, previous work; cited from earlier work
[3] = tested on: non-target receptors or ion channels; design: method as in PMID 25420090; settings: cited from earlier work
[4] = design: method as in PMID 25420090; settings: cited from earlier work
[5] = tested on: σ1R; design: method as in PMID 28572487; settings: human brain, three-hour imaging period; cited from earlier work
[6] = target: σ1R; settings: cited from earlier work
[7] = target: T1, σ1R (Mus musculus, UniProt O55242); assay: Mice PET/CT imaging, baseline and self-blocking; type: in vivo, C57BL/6 mice
T1 construct: The PET/CT studies in mice followed previously reported procedures; from tissue; host or cells: mouse brain in vivo (C57BL/6 wild type; 5xFAD transgenic)
Experimental: PET/CT imaging studies of [^11C]CNY‐01 and [^11C]CNY‐02 were performed in male C57BL/6 mice. […] The whole‐brain time‐activity curve (TAC) of each tracer was generated. […] To investigate the binding specificity of [^11C]CNY‐01 and [^11C]CNY‐02, blocking studies were carried out by pre‐administrating mice with corresponding unlabeled ligands. […] This is due to the receptors in peripheral tissues being occupied by CNY‐01, leading to more radiotracer entering the brain and quickly washing out. […] Of note, the TACs show an increase in brain tracer uptake during the blocking studies, which could be attributed to peripheral blocking effects. To address this, we normalized the brain uptake data to the maximum radioactivity observed in the blood (input function). This normalization allowed us to account for peripheral changes in tracer availability.
Figure 3 Mice PET/CT study with [^11C]CNY‐01 and [^11C]CNY‐02. A) Representative baseline and blocking (pre‐treated with 1.0 mg kg^−1 CNY‐01) PET/CT images of [^11C]CNY‐01 focused on the brain (summed 30‒60 min, n = 4). B) Whole brain time‐activity curves of [^11C]CNY‐01 for baseline and blocking mice. C) The normalized baseline and blocking TACs of [^11C]CNY‐01 (normalized the brain uptake curves with the maximum radioactivity in the blood at each time point). D) Representative baseline and blocking (pre‐treated with 1.0 mg kg^−1 CNY‐02) PET/CT images of [^11C]CNY‐02 focused on the brain (summed 30‒60 min, n = 4). E) Whole brain time‐activity curves of [^11C]CNY‐02 for baseline and blocking mice. F) The normalized baseline and blocking TACs of [^11C]CNY‐02 (normalized the brain uptake curves with the maximum radioactivity in the blood at each time point). Data were presented as mean ± standard error of the mean (SEM). Quantification of results was performed using Student's t‐test (***p < 0.0001).
The PET/CT studies in mice followed previously reported procedures with minor modifications.^[ [53], [54] ^] Mice (wild‐type: C57BL/6, male, 6‐month‐old; AD transgenic: 5xFAD, male, 6‐month‐old, n = 4 for each group) were anesthetized with inhalational isoflurane (Patterson Vet Supply, Inc., Greeley, CO, USA) at 2.0% in a carrier of 2 L min^−1 medical oxygen, and maintained at 1.0% isoflurane during the imaging scan. Mice were injected with radiotracer (200 µL) via lateral tail vein catheterization at the start of the dynamic PET scan (Gamma Medica, Northridge, CA, USA). For blocking studies, the blocking agent was administered via the tail vein 5 min before radiotracer injection. Dynamic PET acquisition lasted 60 min and was followed by computed tomography (CT) for anatomic co‐registration. […] Reconstructed images were exported from the scanner in DICOM format and were analyzed using PMOD (PMOD 4.01).

[8] = tested on: σ2R; design: method as in PMID 26384292; settings: selectivity ratio; cited from earlier work
[9] = target: emopamil binding protein (EBP); design: method as in PMID 11377189; settings: off-target affinity; cited from earlier work
[10] = target: vesicular acetylcholine transporter (VAChT); settings: off-target affinity; literature value, no reference given; cited from earlier work

T1 sequence (O55242 whole entry): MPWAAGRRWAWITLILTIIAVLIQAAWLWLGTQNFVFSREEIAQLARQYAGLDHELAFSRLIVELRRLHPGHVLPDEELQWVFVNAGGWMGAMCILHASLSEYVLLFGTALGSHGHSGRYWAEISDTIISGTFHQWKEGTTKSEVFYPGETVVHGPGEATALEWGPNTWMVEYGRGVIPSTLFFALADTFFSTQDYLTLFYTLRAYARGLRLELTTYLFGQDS

SMILES: Cc1nc(-c2ccc(Cl)cc2)nc(OCCCN2CCCCC2)c1Cl [Lan-0101, 5‐chloro‐2‐(4‐chlorophenyl)‐4‐methyl‐6‐(3‐(piperidin‐1‐yl)propoxy)pyrimidine]
- antinociceptive effects [1]: dose‐dependent antinociceptive effects
- σ2R/σ1R [2]: 1344
- binding affinities to non-target receptors or ion channels [3]: no significant binding affinities
- brain penetration [4]: good brain penetration

SMILES: O=c1sc2cc(CCC[18F])ccc2n1CCN1CCCCCC1 [[^18F]FTC-146]
- brain clearance [5]: unexpectedly slow brain clearance
- Ki [6]: 0.0025 nM

SMILES: Cc1nc(-c2ccc(Cl)cc2)nc(OCCCN2CCN([11CH3])CC2)c1Cl [[^11C]CNY-02]
- maximum standard uptake value (SUV) in the brain ([7]; male C57BL/6 mice, baseline PET/CT): 0.7
- blocking effect, brain uptake normalized to maximum radioactivity in the blood ([7]; pre-treated with 1.0 mg kg^−1 of the corresponding unlabeled ligand): does not show a significant blocking effect

SMILES: COc1cc(CCN2CCN(CCCc3ccccc3)CC2)ccc1O[11CH3] [[^11C]SA4503]
- σ2R/σ1R [8]: 13.3–55.0
- Ki [9]: 1.7 nM
- Ki [10]: 50 nM
